The target of assay [1] is T1, Enterobactin synthase component E (Escherichia coli K-12, UniProt P10378).
T1 sequence (P10378 whole entry): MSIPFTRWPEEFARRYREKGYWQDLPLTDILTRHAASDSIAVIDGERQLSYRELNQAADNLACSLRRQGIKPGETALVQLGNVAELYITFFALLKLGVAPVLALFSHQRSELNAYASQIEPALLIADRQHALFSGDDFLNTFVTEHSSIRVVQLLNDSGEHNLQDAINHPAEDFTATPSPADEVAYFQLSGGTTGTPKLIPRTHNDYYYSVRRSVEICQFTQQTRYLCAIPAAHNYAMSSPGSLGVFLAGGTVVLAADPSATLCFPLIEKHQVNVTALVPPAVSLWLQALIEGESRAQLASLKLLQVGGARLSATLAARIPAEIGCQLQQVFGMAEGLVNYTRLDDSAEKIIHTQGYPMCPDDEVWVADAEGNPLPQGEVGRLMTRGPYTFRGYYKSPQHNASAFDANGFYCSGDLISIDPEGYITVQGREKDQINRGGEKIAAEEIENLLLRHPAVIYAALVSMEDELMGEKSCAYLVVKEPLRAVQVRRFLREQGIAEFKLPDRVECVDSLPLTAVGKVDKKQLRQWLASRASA
The assay is described as follows: Binding affinity to EntE. To be noted: read-out: Ki app.

Assay [2] deals with T1, Enterobactin synthase component E. The assay is described as follows: Binding affinity to EntE corrected to substrate competition.
Assay [3] has as its target T2, Enterobactin synthase component E (Escherichia coli K-12) (UniProt P10378).
T2 sequence (whole entry): T1 sequence (P10378 whole entry)
The assay is described as follows: Inhibition of EntE at 0.0006 M.

Structures are written as SMILES.

Regarding `O=C(NOP(=O)(O)OC[C@H]1O[C@@H](n2cnc3cncnc32)[C@H](O)[C@@H]1O)c1ccccc1O`, the Ki in assay [1] came to 0.037 µM.

As for `O=C(NOP(=O)(O)OC[C@H]1O[C@@H](n2cnc3cncnc32)[C@H](O)[C@@H]1O)c1cccc(O)c1O`, the Ki in assay [1] stood at 0.009 µM; in assay [2] it was 0.0045 µM.

On to `O=C(NOP(=O)(O)OC[C@H]1O[C@@H](n2cnc3cncnc32)[C@H](O)[C@@H]1O)c1ccccc1`, for which the Ki in assay [1] is 13 µM.

The inhibition is the relative decrease from the control value, in per cent. Lower therefore signals a response near the control. For the compound `CC(=O)NOP(=O)(O)OC[C@H]1O[C@@H](n2cnc3cncnc32)[C@H](O)[C@@H]1O`, in assay [1], the Ki is not below 1000 µM. The compound further showed an inhibition in assay [3] of less than 10%.

These data come from ChEMBL document CHEMBL1137423, “Nanomolar inhibition of the enterobactin biosynthesis enzyme, EntE: synthesis, substituent effects, and additivity” (Bioorg Med Chem Lett, 2006).
